Like-named read-outs stand apart in the source and are kept apart here.
Experiments:
[1] = tested on: primary culture of rat embryo mesencephalic cells (microglia, astrocytes and neurons) exposed to LPS; test: Neuroprotective effect on damage induced by LPS on culture of mesencephalic neurons (NO, TNF-α, IL-1β, TH positive neurons); format: cell-based; conditions: after 5 days of LPS exposure; for inhibition at 10 µM / inhibition at 50 µM: Rattus norvegicus, Neuron, 120 h, read-out: % reversion of TH positive neurons
Procedure, shortened: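 E15 Wistar rat ventral mesencephalic cultures, day 7, pretreated 1 h with compound (0.1% DMSO) before LPS 10 ng/ml. NO (Griess) at 24 h and 5 days and IL-1β/TNF-α (ELISA) at 24 h, expressed vs LPS control = 100%; TH+ neurons counted by imaging at 5 days, vs non-intoxicated = 100%.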

[2] = tested on: Bronchial epithelial cells co-cultured with dermal fibroblast (BF4T system); test: BioMAP BF4T system (TNFα and IL-4); format: cell-based, human; conditions: for activation at 10 µM / activation at 1 µM: Homo sapiens, 24 h, read-out: % increase in VCAM-1
[3] = tested on: Coronary artery smooth muscle cells (CASM3C system); test: BioMAP CASM3C system (IL-1β, TNFα, IFNγ); format: cell-based, human; conditions: for inhibition at 10 µM: Homo sapiens, 24 h, read-out: % decrease in Thrombomodulin
[4] = tested on: Dermal fibroblasts (HDF3CGF system); test: BioMAP HDF3CGF system (IL-1β, TNFα, IFNγ, EGF, bFGF, PDGF-BB); format: cell-based, human; conditions: for activation at 10 µM: 72 h, read-out: % increase in 72 Hour Proliferation
[5] = 10 uM, procedure of Example 830
[6] = 10 uM, procedure of Example 832
[7] = 10 uM, procedure of Example 833
[8] = Homo sapiens, Fibroblast, 24 h, 10 uM, read-out: % decrease in Collagen III
[9] = Homo sapiens, Fibroblast, 10 uM

Compound: C[C@@H](O)CC(=O)SCCNC(=O)CCNC(=O)[C@H](O)C(C)(C)CO [Compound 38, S-2-{3-[(R)-2,4-dihydroxy-3,3-dimethylbutyrylamino]propionylamino} ethyl (R)-3-hydroxybutanethioate]
- inhibition at 10 µM ([1]; 10 uM, list at threshold 15%): ≥ 15%

Compound: C[C@@H](O)CC(=O)CC(=O)SCCNC(=O)CCNC(=O)[C@H](O)C(C)(C)CO [Compound 42, (2R)-2,4-dihydroxy-N-[2-[(2-[[(5R)-5-hydroxy-3-oxohexanoyl]sulfanyl]ethyl)carbamoyl]ethyl]-3,3-dimethylbutanamide]
- % decrease in IL-1α ([2]; 10 uM): ≥10%
- % increase in Eotaxin-3 [2, 5]: ≥10%
- % increase in MMP-3 [2, 5]: ≥10%
- % increase in keratin 8/18 [2, 5]: ≥10%
- activation at 10 µM [2, 5]: ≥ 10%
- % decrease in NO release relative to LPS alone ([1]; 50 uM): ≥5%
- inhibition at 50 µM ([1]; 50 uM, list at threshold 15%): ≥ 15%
- inhibition at 50 µM ([1]; 50 uM, list at threshold 50%): ≥ 50%
- % increase in M-CSF [3, 6]: ≥10%
- % increase in Proliferation [3, 6]: ≥10%

Compound: CC(C)(CO)[C@@H](O)C(=O)NCCC(=O)NCCSC(CC(=O)OCC[N+](C)(C)C)C(=O)O (stereo partly drawn) [Compound 51, [2-([3-carboxy-3-[(2-[3-[(2R)-2,4-dihydroxy-3,3-dimethylbutanamido]propanamido]ethyl)sulfanyl]propanoyl]oxy)ethyl]trimethylazanium]
- % decrease in NO release relative to LPS alone ([1]; 10 uM): ≥5%
- inhibition at 50 µM ([1]; 50 uM, list at threshold 15%): ≥ 15%
- inhibition at 50 µM ([1]; 50 uM, list at threshold 50%): ≥ 50%

Compound: CC(C)(COC(=O)OCC[N+](C)(C)C)[C@@H](O)C(=O)NCCC(=O)NCCSC(=O)CCC(=O)O [Compound 116, [2-([[(3R)-3-[[2-([2-[(3-carboxypropanoyl)sulfanyl]ethyl]carbamoyl)ethyl]carbamoyl]-3-hydroxy-2,2-dimethylpropoxy]carbonyl]oxy)ethyl]trimethylazanium]
- % increase in MMP-3 ([2]; 1 uM, procedure of Example 830): ≥10%
- % increase in keratin 8/18 ([2]; 1 uM, procedure of Example 830): ≥10%
- % decrease in IL-1α ([2]; 10 uM): ≥10%
- activation at 10 µM [2, 5]: ≥ 10%
- % decrease in Collagen I [4, 7]: ≥10%
- inhibition at 10 µM ([1]; 10 uM, list at threshold 15%): ≥ 15%
- % decrease in Proliferation ([3]; 1 uM, procedure of Example 832): ≥10%

Compound: COC(=O)CCC(=O)SCCNC(=O)CCNC(=O)[C@H](O)C(C)(C)COC(C)=O [Compound 138]
- % decrease in Collagen I ([4]; 1 uM, procedure of Example 833): ≥10%
- inhibition at 50 µM ([1]; 50 uM, list at threshold 15%): ≥ 15%
- inhibition at 50 µM ([1]; 50 uM, list at threshold 50%): ≥ 50%
- inhibition at 10 µM ([3]; 10 uM): ≥ 10%

Compound: CC(=O)OCC(C)(C)[C@@H](O)C(=O)NCCC(=O)NCCSC(=O)CC(=O)CCC(=O)O [Compound 140, 6-[(2-[3-[(2R)-4-(acetyloxy)-2-hydroxy-3,3-dimethylbutanamido]propanamido]ethyl)sulfanyl]-4,6-dioxohexanoic acid]
- inhibition at 50 µM ([1]; 50 uM, list at threshold 15%): ≥ 15%
- inhibition at 50 µM ([1]; 50 uM, list at threshold 50%): ≥ 50%

Compound: COC(=O)CC(SCCNC(=O)CCNC(=O)[C@H](O)C(C)(C)COC(C)=O)C(=O)OC (stereo partly drawn) [Compound 149, 1,4-dimethyl 2-[(2-[3-[(2R)-4-(acetyloxy)-2-hydroxy-3,3-dimethylbutanamido]propanamido]ethyl)sulfanyl]butanedioate]
- % decrease in MMP-9 ([2]; 1 uM, procedure of Example 830): ≥10%
- % increase in Eotaxin-3 [2, 5]: ≥10%
- activation at 10 µM [2, 5]: ≥ 10%
- % increase in Collagen I ([4]; 1 uM, procedure of Example 833): ≥10%
- % increase in IL-6 [3, 6]: ≥10%
- inhibition at 10 µM ([3]; 10 uM): ≥ 10%

Compound: CC(C)(CO)[C@@H](O)C(=O)NCCC(=O)NCCSC(=O)[C@@H](N)Cc1ccc(O)c(O)c1 [Compound 371, (2R)—N-[2-[(2-[[(2S)-2-amino-3-(3,4-dihydroxyphenyl)propanoyl]sulfanyl]ethyl)carbamoyl]ethyl]-2,4-dihydroxy-3,3-dimethylbutanamide]
- % increase in MCP-1 ([2]; 1 uM, procedure of Example 830): ≥10%
- % increase in MMP-9 ([2]; 1 uM, procedure of Example 830): ≥10%
- % increase in Eotaxin-3 [2, 5]: ≥10%
- activation at 1 µM ([2]; 1 uM, procedure of Example 830): ≥ 10%
- % increase in PAI-I ([4]; 10 uM): ≥10%
- % decrease in Collagen I [4, 7]: ≥10%
- inhibition at 10 µM [4, 8]: ≥ 10%

Compound: CCCCCCC(=O)SCCNC(=O)CCNC(=O)[C@H](O)C(C)(C)CO [Compound 372, (2R)—N-(2-[[2-(heptanoylsulfanyl)ethyl]carbamoyl]ethyl)-2,4-dihydroxy-3,3-dimethylbutanamide]
- activation at 1 µM ([2]; 1 uM, procedure of Example 830): ≥ 10%
- % increase in PAI-I ([4]; 10 uM): ≥10%
- inhibition at 10 µM [4, 8]: ≥ 10%
- % decrease in LDLR ([3]; 1 uM, procedure of Example 832): ≥10%
- % decrease in VCAM-1 ([3]; 1 uM, procedure of Example 832): ≥10%
- inhibition at 10 µM ([3]; 10 uM): ≥ 10%

Compound: COC(=O)CC(C(C)=O)C(=O)SCCNC(=O)CCNC(=O)[C@H](O)C(C)(C)CO (stereo partly drawn) [Compound 410]
- % decrease in NO release relative to LPS alone ([1]; 50 uM): ≥10%
- inhibition at 50 µM ([1]; 50 uM, list at threshold 15%): ≥ 15%

Compound: CC(=O)SCCNC(=O)CCNC(=O)[C@H](O)C(C)(C)COC(=O)[C@@H](N)Cc1ccc(O)c(O)c1 [Compound 498, (3R)-3-[(2-[[2-(acetylsulfanyl)ethyl]carbamoyl]ethyl)carbamoyl]-3-hydroxy-2,2-dimethylpropyl (2S)-2-amino-3-(3,4-dihydroxyphenyl)propanoate]
- % increase in 1L-8 ([2]; 1 uM, procedure of Example 830): ≥10%
- % increase in MCP-1 ([2]; 1 uM, procedure of Example 830): ≥10%
- % decrease in IL-1α ([2]; 10 uM): ≥10%
- % increase in Eotaxin-3 [2, 5]: ≥10%
- % increase in MMP-9 [2, 5]: ≥10%
- activation at 10 µM [2, 5]: ≥ 10%
- % decrease in TIMP-2 ([4]; 1 uM): ≥10%
- % increase in M-CSF ([4]; 10 uM): ≥10%
- % increase in SRB ([4]; 10 uM): ≥10%
- % decrease in Collagen I [4, 7]: ≥10%
- inhibition at 10 µM [4, 8]: ≥ 10%
- inhibition at 50 µM ([1]; 50 uM, list at threshold 15%): ≥ 15%
- % increase in IL-6 ([3]; 1 uM, procedure of Example 832): ≥10%

Compound: CC(=O)SCCNC(=O)CCNC(=O)[C@H](O)C(C)(C)COC(=O)[C@H](C)N [Compound 502, (3R)-3-[(2-[[2-(acetylsulfanyl)ethyl]carbamoyl]ethyl)carbamoyl]-3-hydroxy-2,2-dimethylpropyl (2S)-2-aminopropanoate]
- % decrease in IL-1α ([2]; 10 uM): ≥10%
- activation at 1 µM ([2]; 1 uM, procedure of Example 830): ≥ 10%
- % increase in SRB ([4]; 1 uM): ≥10%
- inhibition at 10 µM ([3]; 10 uM): ≥ 10%

Compound: CC(=O)OCC(C)(C)[C@@H](OC(C)=O)C(=O)NCCC(=O)NCCSC(C)=O [Compound 1264, (1R)-3-(acetyloxy)-1-[(2-[[2-(acetylsulfanyl)ethyl]carbamoyl]ethyl)carbamoyl]-2,2-dimethylpropyl acetate]
- activation at 1 µM ([2]; 1 uM, procedure of Example 830): ≥ 10%
- % increase in PAI-I ([4]; 1 uM): ≥10%
- % increase in TIMP-2 ([4]; 10 uM): ≥10%
- activation at 10 µM [4, 9]: ≥ 10%
- % increase in IL-6 ([3]; 1 uM, procedure of Example 832): ≥10%

Compound: COC(=O)CCC(=O)SCCNC(=O)CCNC(=O)[C@H](OC(=O)CN)C(C)(C)CO [Compound 1294, methyl 4-[(2-[3-[(2R)-2-[(2-aminoacetyl)oxy]-4-hydroxy-3,3-dimethylbutanamido]propanamido]ethyl)sulfanyl]-4-oxobutanoate]
- % decrease in tPA [2, 5]: ≥10%
- inhibition at 1 µM ([4]; Homo sapiens, Fibroblast, 24 h, 1 uM, read-out: % decrease in Collagen III): ≥ 10%
- activation at 10 µM [4, 9]: ≥ 20%
- % decrease in Tissue Factor ([3]; 1 uM): ≥10%
- % decrease in uPAR ([3]; 1 uM): ≥10%
- % decrease in M-CSF ([3]; 1 uM, procedure of Example 832): ≥10%
- % decrease in VCAM-1 ([3]; 1 uM, procedure of Example 832): ≥10%
- % decrease in HLA-DR ([3]; 10 uM): ≥10%
- inhibition at 10 µM ([3]; 10 uM): ≥ 20%

Compound: COC(=O)CCC(=O)SCCNC(=O)CCNC(=O)[C@H](OC(=O)CNC(C)=O)C(C)(C)CO [Compound 1298, methyl 4-[(2-[3-[(2R)-2-[(2-acetamidoacetyl)oxy]-4-hydroxy-3,3-dimethylbutanamido]propanamido]ethyl)sulfanyl]-4-oxobutanoate]
- activation at 10 µM [2, 5]: ≥ 10%
- % decrease in TIMP-1 ([4]; 1 uM): ≥10%
- % decrease in TIMP-2 ([4]; 1 uM): ≥10%
- % decrease in uPAR ([3]; 1 uM): ≥10%
- % decrease in LDLR ([3]; 1 uM, procedure of Example 832): ≥10%
- % decrease in VCAM-1 ([3]; 1 uM, procedure of Example 832): ≥10%
- % increase in Proliferation [3, 6]: ≥10%
- inhibition at 10 µM ([3]; 10 uM): ≥ 20%
